From patent US20240309043A1, “THERAPEUTICALLY ACTIVE STEROIDAL DERIVATIVES” (Organon R&D Finland Ltd., priority 2017, published 2024) come the findings set out here.

What is called inhibition is how much of the control response was suppressed.

Holding throughout (type): biochemical
Assay [1] deals with T1, recombinant human 17β-HSD2 (Homo sapiens, UniProt P37059).
T1 construct: made in house; host or cells: Sd9 (Sf9) insect cells, baculovirus (Bac to Bac Expression System)
T1 sequence (P37059 1-387): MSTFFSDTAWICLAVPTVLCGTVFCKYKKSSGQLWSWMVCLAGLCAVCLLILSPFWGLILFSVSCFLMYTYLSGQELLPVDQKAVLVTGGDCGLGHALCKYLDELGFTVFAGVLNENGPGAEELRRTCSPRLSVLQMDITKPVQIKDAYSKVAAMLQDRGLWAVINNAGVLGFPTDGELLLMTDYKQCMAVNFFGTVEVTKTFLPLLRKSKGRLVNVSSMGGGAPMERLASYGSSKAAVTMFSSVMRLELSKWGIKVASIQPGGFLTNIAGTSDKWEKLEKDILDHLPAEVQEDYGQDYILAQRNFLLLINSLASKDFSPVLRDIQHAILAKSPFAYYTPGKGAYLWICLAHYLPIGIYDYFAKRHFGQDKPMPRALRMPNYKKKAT
In words: Inhibition of recombinant human 17β-HSD2. The note with it: inhibitor 1 μM; 50 nM estradiol, 1 mM NADH, 30 min RT. The procedure, abridged: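 Sf9 baculovirus-expressed enzyme membrane extract (4 μg/ml) incubated 30 min at RT in 20 mM KH2PO4 pH 8.5 with 50 nM estradiol (³H-tracer) and 1 mM NADH, inhibitor at 1 μM or 0.1 μM, 1% DMSO. TCA-stopped; estradiol-to-estrone conversion by radio-HPLC, % inhibition = 100 − % conversion.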

In assay [2] the target is T2, recombinant human 17β-HSD1 (Homo sapiens, UniProt P14061).
T2 construct: made in house; host or cells: Sd9 (Sf9) insect cells, baculovirus (Bac to Bac Expression System)
T2 sequence (P14061 1-328): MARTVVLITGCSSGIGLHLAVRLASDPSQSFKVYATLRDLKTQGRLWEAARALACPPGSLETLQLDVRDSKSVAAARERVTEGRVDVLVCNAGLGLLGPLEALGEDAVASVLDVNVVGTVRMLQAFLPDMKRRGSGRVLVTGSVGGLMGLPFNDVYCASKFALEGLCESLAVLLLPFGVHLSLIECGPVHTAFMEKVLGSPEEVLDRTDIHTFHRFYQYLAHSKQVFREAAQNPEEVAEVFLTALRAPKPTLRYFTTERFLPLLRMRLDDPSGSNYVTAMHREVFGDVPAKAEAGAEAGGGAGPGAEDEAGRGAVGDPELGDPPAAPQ
Kind of assay: Inhibition of recombinant human 17β-HSD1. The note with it: inhibitor 100 nM; 30 nM estrone, 1 mM NADPH, 30 min RT. The procedure, abridged:
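Microsomes from Sf9 cells expressing human 17β-HSD1 (1 μg/ml) were incubated for 30 min at RT in 20 mM KH2PO4 pH 7.4 with 30 nM ³H-estrone, 1 mM NADPH and inhibitor at 1 μM or 0.1 μM (1% DMSO). Estrone-to-estradiol conversion was measured by radio-HPLC after TCA stop, and % inhibition was taken as 100 − % conversion.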

Assay [3] has as its system HSD1 enzyme that is expressed in rabbit placenta tissue. Kind of assay: Inhibition of E1 to E2 conversion in rabbit placenta tissue homogenate. The note with it: inhibitor 100 nM, 30 nM estrone, 30 min.

Regarding `CNC(=O)CC[C@@H]1C/C(=N\O)[C@@]2(C)CCC3c4cccc(F)c4CCC3C12` (stereo partly drawn) [Compound 118, 3-((13S,15R,E)-4-fluoro-17-(hydroxyimino)-13-methyl-7,8,9,11,12,13,14,15,16,17-decahydro-6H-cyclopenta[a]phenanthren-15-yl)-N-methylpropanamide], the inhibition at 1 µM in assay [1] amounted to 2%. In addition, in assay [2], the inhibition at 0.1 µM was 43%. The “Rabbit placenta inhibition % @100 nM” value in assay [3] is given as −1%.

Take `CN(C)C(=O)CC[C@@H]1C/C(=N\O)[C@@]2(C)CCC3c4cccc(F)c4CCC3C12` (stereo partly drawn) [Compound 120, 3-((13S,15R,E)-4-fluoro-17-(hydroxyimino)-13-methyl-7,8,9,11,12,13,14,15,16,17-decahydro-6H-cyclopenta[a]phenanthren-15-yl)-N,N-dimethylpropanamide]: the inhibition at 1 µM in assay [1] was determined as 2%. Also, the inhibition at 0.1 µM in assay [2] was 57%. The “Rabbit placenta inhibition % @100 nM” value in assay [3] is reported as 9%.

In the case of `C[C@]12CCC3c4cccc(F)c4CCC3C1[C@H](CCC(=O)NC1CCOCC1)C/C2=N\O` (stereo partly drawn) [Compound 122, 3-((13S,15R,E)-4-fluoro-17-(hydroxyimino)-13-methyl-7,8,9,11,12,13,14,15,16,17-decahydro-6H-cyclopenta[a]phenanthren-15-yl)-N-(tetrahydro-2H-pyran-4-yl)propanamide], the inhibition at 1 µM in assay [1] turned out to be 6%. Besides, in assay [2], the inhibition at 0.1 µM is 67%. In addition, the “Rabbit placenta inhibition % @100 nM” value in assay [3] was 4%.

As for `C[C@]12CCC3c4cccc(F)c4CCC3C1[C@H](CCC(=O)NC1CCCCC1)C/C2=N\O` (stereo partly drawn) [Compound 124, N-Cyclohexyl-3-((13S,15R,E)-4-fluoro-17-(hydroxyimino)-13-methyl-7,8,9,11,12,13,14,15,16,17-decahydro-6H-cyclopenta[a]phenanthren-15-yl)propanamide], the inhibition at 1 µM in assay [1] amounted to 4%. The inhibition at 0.1 µM in assay [2] was found to be 86%. Further, the “Rabbit placenta inhibition % @100 nM” value in assay [3] was 4%.

Turning to `C[C@]12CCC3c4cccc(F)c4CCC3C1[C@H](CCC(=O)Nc1cnccn1)C/C2=N\O` (stereo partly drawn) [Compound 126, 3-((13S,15R,E)-4-fluoro-17-(hydroxyimino)-13-methyl-7,8,9,11,12,13,14,15,16,17-decahydro-6H-cyclopenta[a]phenanthren-15-yl)-N-(pyrazin-2-yl)propanamide], the inhibition at 1 µM in assay [1] was determined as 3%. In addition, the inhibition at 0.1 µM in assay [2] is 53%. For the same molecule, in assay [3], the “Rabbit placenta inhibition % @100 nM” value came to 26%.

For the molecule `C[C@]12CCC3c4cccc(F)c4CCC3C1[C@H](CCC(=O)N1CCC3(CCOCC3)C1)C/C2=N\O` (stereo partly drawn) [Compound 128, 3-((13S,15R,E)-4-fluoro-17-(hydroxyimino)-13-methyl-7,8,9,11,12,13,14,15,16,17-decahydro-6H-cyclopenta[a]phenanthren-15-yl)-1-(8-oxa-2-azaspiro[4.5]decan-2-yl)propan-1-one], the inhibition at 1 µM in assay [1] worked out at 6%. In addition, the inhibition at 0.1 µM in assay [2] worked out at 59%. In addition, the “Rabbit placenta inhibition % @100 nM” value in assay [3] is recorded as 2%.

As to `Cc1ccnc(NC(=O)CC[C@@H]2C/C(=N\O)[C@@]3(C)CCC4c5cccc(F)c5CCC4C23)c1` (stereo partly drawn) [Compound 130, 3-((13S,15R,E)-4-fluoro-17-(hydroxyimino)-13-methyl-7,8,9,11,12,13,14,15,16,17-decahydro-6H-cyclopenta[a]phenanthren-15-yl)-N-(4-methylpyridin-2-yl)propanamide], the inhibition at 1 µM in assay [1] is 14%. For the same molecule, in assay [2], the inhibition at 0.1 µM stood at 92%. For the same molecule, in assay [3], the “Rabbit placenta inhibition % @100 nM” value was determined as 40%.

Take `COc1ccnc(NC(=O)CC[C@@H]2C/C(=N\O)[C@@]3(C)CCC4c5cccc(F)c5CCC4C23)c1` (stereo partly drawn) [Compound 132, 3-((13S,15R,E)-4-fluoro-17-(hydroxyimino)-13-methyl-7,8,9,11,12,13,14,15,16,17-decahydro-6H-cyclopenta[a]phenanthren-15-yl)-N-(4-methoxypyridin-2-yl)propanamide]: the inhibition at 1 µM in assay [1] was determined as 6%. Besides, in assay [2], the inhibition at 0.1 µM was 87%. Also, the “Rabbit placenta inhibition % @100 nM” value in assay [3] was 27%.
